The nature of this assay: Inhibition of Beta-glucosidase activity.

Each structure is given as a SMILES string. pIC50: −log10 of the molar value.

A word on the pIC50: it is the negative decadic logarithm of the IC50, by convention in mol/L. In turn, `Nc1ccc2c(c1)C(=O)N(c1ccccc1)C2=O` [5-Amino-2-phenyl-isoindole-1,3-dione] had a negative-log IC50 (pIC50) of less than 3.30.

The compound `O=C1c2cccc(O)c2C(=O)N1c1ccccc1` [4-Hydroxy-2-phenyl-isoindole-1,3-dione] gave a pIC50 of less than 3.30.

In turn, `O=C1c2c(Cl)c(Cl)c(Cl)c(Cl)c2C(=O)N1CCCc1ccccc1` [4,5,6,7-Tetrachloro-2-(3-phenyl-propyl)-isoindole-1,3-dione] gave a pIC50 of less than 3.30.

`O=C1c2ccc(O)cc2C(=O)N1c1ccccc1` [5-hydroxy-2-phenylisoindoline-1,3-dione] gave a negative-log IC50 (pIC50) of less than 3.30.

Compound `O=C1c2ccccc2C(=O)N1c1ccccc1` [2-Phenyl-isoindole-1,3-dione] gave a negative logarithm of the IC50 (pIC50) of less than 3.30.

Consider `O=C1c2ccccc2C(=O)N1CCCc1ccccc1` [2-(3-Phenyl-propyl)-isoindole-1,3-dione], for which the pIC50 was less than 3.30.

On to `O=C1c2c(Cl)c(Cl)c(Cl)c(Cl)c2C(=O)N1CCCCCCc1ccccc1` [4,5,6,7-Tetrachloro-2-(6-phenyl-hexyl)-isoindole-1,3-dione], for which the negative-log IC50 (pIC50) was less than 3.30.

`O=C1c2ccccc2C(=O)N1CCc1ccccc1` [2-Phenethyl-isoindole-1,3-dione] gave a pIC50 of less than 3.30.

As to `O=C1c2cccc([N+](=O)[O-])c2C(=O)N1c1ccccc1`, the negative logarithm of the IC50 (pIC50) was less than 3.30.

With `O=C1c2ccc([N+](=O)[O-])cc2C(=O)N1c1ccccc1` [5-Nitro-2-phenyl-isoindole-1,3-dione], the pIC50 was less than 3.30.

For `O=C1c2c(Cl)c(Cl)c(Cl)c(Cl)c2C(=O)N1CCc1ccccc1` [4,5,6,7-Tetrachloro-2-phenethyl-isoindole-1,3-dione], the negative logarithm of the IC50 (pIC50) was less than 3.30.

Compound `O=C1c2c(Cl)c(Cl)c(Cl)c(Cl)c2C(=O)N1CCCCCc1ccccc1` [4,5,6,7-Tetrachloro-2-(5-phenyl-pentyl)-isoindole-1,3-dione] gave a pIC50 of less than 3.30.

For the compound `O=C1c2c(Cl)c(Cl)c(Cl)c(Cl)c2C(=O)N1CCCCc1ccccc1` [4,5,6,7-tetrachloro-2-(4-phenylbutyl)isoindoline-1,3-dione], the pIC50 was less than 3.30.

Consider `O=C1c2c(Cl)c(Cl)c(Cl)c(Cl)c2C(=O)N1Cc1ccccc1` [2-Benzyl-4,5,6,7-tetrachloro-isoindole-1,3-dione], for which the pIC50 is less than 3.30.

Values taken from BindingDB's records for doi:10.1016/s0960-894x(00)00161-x (University of Tokyo, 2000).
